Laboratory results reported in patent publication US20130295080A1, “Pharmaceutical composition for treating melasma and preparation method thereof” (Jilin Zixin Pharmaceutical Research Institution LLC, priority 2011, published 2013).

Experiments:
Type in all cases: in vivo, Kunming female mice
[1] = viscosity of the whole blood of mice with progesterone-induced melasma; settings: vitamin C group
[2] = test system: SOD in mice livers; assay: SOD in mice livers (reagent kit, spectrophotometer); settings: vitamin C group
[3] = test system: MDA in mice livers; assay: MDA content in mice livers; settings: vitamin C group, dosage 0.1, once a day for 30 d, progesterone-modeled mice
[4] = test system: SOD in mice skins; assay: SOD in mice skins; settings: vitamin C group, dosage 0.1, once a day for 30 d, progesterone-modeled mice
[5] = test system: MDA in mice skins; assay: MDA content in mice skins
[6] = test system: NO in mice skins; assay: NO content in mice skins; settings: vitamin C group, dosage 0.1, once a day for 30 d, progesterone-modeled mice
[7] = test system: melanin cells in skins of mice; assay: melanin cells in skins of mice, HMB45 immunohistochemistry with image analysis; settings: mouse skin, vitamin C group, progesterone-modeled mice
[8] = dosage 0.1, once a day for 30 d, progesterone-modeled mice
[9] = melanin-positive target, dosage 0.1, once a day for 30 d

O=C1O[C@H]([C@@H](O)CO)C(O)=C1O [vitamin C]
blood viscosity with different shear rates (mPas) 1/s ([1]; shear rate 1/s, dosage 0.1, once a day for 30 d, progesterone-modeled mice): 29.22 ± 2.18 mPas
blood viscosity with different shear rates (mPas) 30/s ([1]; shear rate 30/s, dosage 0.1, once a day for 30 d, progesterone-modeled mice): 11.22 ± 1.75 mPas
blood viscosity with different shear rates (mPas) 100/s ([1]; shear rate 100/s, dosage 0.1, once a day for 30 d, progesterone-modeled mice): 4.60 ± 1.36 mPas
blood viscosities with different shear rates compared with the normal control group [1]: obviously increased
blood viscosity with different shear rates (mPas) 3/3 [1, 8]: 28.85 ± 4.35 mPas
SOD activities compared with the modeling control group [2]: obviously increased
SOD [2, 8]: 45.62 ± 16.04
MDA [3]: 4.58 ± 1.26
SOD [4]: 19.95 ± 5.33
MDA ([5]; vitamin C group, dosage 0.1, once a day for 30 d, progesterone-modeled mice): 4.20 ± 1.34
MDA contents compared with the modeling control group ([5]; vitamin group): obviously decreased
NO [6]: 1.71 ± 0.52
average optical density [7, 9]: 0.33 ± 0.14
integrated optical density [7, 9]: 1152.52 ± 344.09
average size of positive target ([7]; dosage 0.1, once a day for 30 d): 3720.56 ± 1191.13
